What was measured:
ISC-enriched organoids [1] = experiment: Primary screen, 384-well 2.5-D organoid differentiation (ENR+CD, 6 days, Target Selective Inhibitor Library, vs whole-plate median): ATP (CellTiter-Glo 3D, CTG); conditions: primary screen; for Dose.FC.CTG (log 2 fold change): vs plate median
ISC-enriched organoids [2] = experiment: Primary screen, 384-well 2.5-D organoid differentiation (ENR+CD, 6 days): basal lysozyme secretion (LYZ.NS); assay type: cell-based, murine; conditions: primary screen; for Dose.FC.LYZ.NS (log 2 fold change): vs plate median
Text: (§1) High-throughput screening.

ISC-enriched organoids [3] = experiment: Primary screen, 384-well 2.5-D organoid differentiation (ENR+CD, 6 days): carbachol-induced lysozyme secretion (LYZ.S); assay type: cell-based, murine; conditions: primary screen, vs plate median
Text: as §1

Compound | Z.CTG (standard z score) (ISC-enriched organoids [1]; Dose 0.08 uM) | Dose.FC.CTG (log 2 fold change) (ISC-enriched organoids [1]; Dose 0.08 uM) | Z.CTG (standard z score) (ISC-enriched organoids [1]; Dose 0.40 uM) | Dose.FC.CTG (log 2 fold change) (ISC-enriched organoids [1]; Dose 0.40 uM) | Z.CTG (standard z score) (ISC-enriched organoids [1]; Dose 2.00 uM) | Dose.FC.CTG (log 2 fold change) (ISC-enriched organoids [1]; Dose 2.00 uM) | Z.CTG (standard z score) (ISC-enriched organoids [1]; Dose 10.00 uM) | Dose.FC.CTG (log 2 fold change) (ISC-enriched organoids [1]; Dose 10.00 uM) | Z.LYZ.NS (standard z score) (ISC-enriched organoids [2]; Dose 0.08 uM) | Dose.FC.LYZ.NS (log 2 fold change) (ISC-enriched organoids [2]; Dose 0.08 uM) | Z.LYZ.NS (standard z score) (ISC-enriched organoids [2]; Dose 0.40 uM) | Dose.FC.LYZ.NS (log 2 fold change) (ISC-enriched organoids [2]; Dose 0.40 uM) | Z.LYZ.NS (standard z score) (ISC-enriched organoids [2]; Dose 2.00 uM) | Dose.FC.LYZ.NS (log 2 fold change) (ISC-enriched organoids [2]; Dose 2.00 uM) | Z.LYZ.NS (standard z score) (ISC-enriched organoids [2]; Dose 10.00 uM) | Dose.FC.LYZ.NS (log 2 fold change) (ISC-enriched organoids [2]; Dose 10.00 uM) | Dose.FC.LYZ.S (log 2 fold change) (ISC-enriched organoids [3]; Dose 0.08 uM) | Dose.FC.LYZ.S (log 2 fold change) (ISC-enriched organoids [3]; Dose 0.40 uM) | Dose.FC.LYZ.S (log 2 fold change) (ISC-enriched organoids [3]; Dose 2.00 uM) | Dose.FC.LYZ.S (log 2 fold change) (ISC-enriched organoids [3]; Dose 10.00 uM)
Oc1ccc(Nc2nc(-c3ccc(Cl)cc3)cs2)cc1 [SKI II] | 0.699 | 0.293 | 0.531 | 0.222 | 0.473 | 0.198 | −0.802 | −0.336 | 0.683 | 0.078 | 1.906 | 0.219 | 0.647 | 0.074 | −1.362 | −0.156 | 0.090 | 0.123 | 0.061 | −0.191
O=C1NC(=O)/C(=C/c2cccc(C(F)(F)F)c2)S1 [SMI-4a] | −0.366 | −0.153 | −0.758 | −0.317 | −0.793 | −0.332 | −0.781 | −0.327 | 0.188 | 0.022 | −0.524 | −0.060 | 0.283 | 0.032 | −0.643 | −0.074 | 0.036 | −0.063 | −0.042 | −0.134
CC(C)(C)c1cnc(CSc2cnc(NC(=O)C3CCNCC3)s2)o1 [SNS-032 (BMS-387032)] | −0.180 | −0.075 | −0.198 | −0.083 | −2.186 | −0.915 | −2.411 | −1.009 | 0.428 | 0.049 | −1.241 | −0.143 | −2.399 | −0.276 | −2.214 | −0.254 | 0.070 | −0.206 | −0.301 | −0.361
O=C(Nc1cc(C(F)(F)F)ccc1N1CCCCC1)c1ccncc1 [SRPIN340] | 1.005 | 0.421 | 1.063 | 0.445 | 1.083 | 0.453 | 1.115 | 0.467 | 1.004 | 0.115 | 0.348 | 0.040 | 0.846 | 0.097 | 0.192 | 0.022 | 0.112 | 0.098 | 0.100 | 0.078
O=C(Nc1ccccc1-c1cn2c(CN3CCNCC3)csc2n1)c1cnc2ccccc2n1 [SRT1720] | 1.264 | 0.529 | 0.940 | 0.394 | 0.810 | 0.339 | −2.427 | −1.016 | 1.495 | 0.172 | 0.972 | 0.112 | 0.613 | 0.070 | −0.906 | −0.104 | 0.190 | 0.099 | 0.051 | −0.193
COc1c(C)c(C(=O)c2ccc(N)c(C(=O)[O-])c2)n2ccccc12.[Na+] [SSR128129E] | 0.210 | 0.088 | 0.545 | 0.228 | 0.291 | 0.122 | −0.063 | −0.026 | 0.807 | 0.093 | 0.339 | 0.039 | 0.257 | 0.030 | −0.850 | −0.098 | 0.086 | 0.122 | 0.023 | −0.095
